Experimental data from patent US20250313535A1, “ALPHA 4 BETA 7 INTEGRIN MODULATORS AND USES THEREOF” (DICE MOLECULES SV, INC., priority 2022, published 2025).

Key:
[1] = biological target: α4β7 integrin (Homo sapiens (Human), UniProt P13612+P26010); assay: Integrin Adhesion Assay: Protocol 4 (MAdCAM-coated plate, RPMI-8866 cells with stable LOF mutation of the ITGB1 gene); assay type: cell-based; settings: Protocol 4; RPMI-8866 cells with LOF mutation of ITGB1, MAdCAM; read-out: Mean IC50 α4β7 KO
Summary of the method: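 RPMI-8866 cells with CRISPR/Cas9 knockout of ITGB1 (2×10^6/mL) were added to MAdCAM-coated wells with compound (1% DMSO) in HEPES/NaCl buffer with 1 mM MnCl2, 0.1 mM CaCl2 and 1% BSA, then incubated 1 h at 37 °C. After four washes, adherent cells were quantified by CellTiter-Glo luminescence. Percent inhibition versus DMSO and control compound was fitted to 4-parameter curves.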

[2] = biological target: α4β1 integrin (Homo sapiens (Human), UniProt P05556+P13612); assay: Integrin Adhesion Assay: Protocol 5 (VCAM-coated plate, RPMI-8866 cells with stable LOF mutation of the ITGB7 gene); assay type: cell-based; settings: Protocol 5; RPMI-8866 cells with LOF mutation of ITGB7, VCAM; read-out: Mean IC50 α4β1 KO
Summary of the method: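 RPMI-8866 B cells with CRISPR/Cas9 ITGB7 knockout (clonal, verified by flow cytometry) adhered to VCAM-coated wells for 1 h at 37° C in HEPES/NaCl buffer with 1 mM MnCl2, 0.1 mM CaCl2, 1% BSA, 1% DMSO. Bound cells quantified by CellTiter-Glo luminescence after washing; % inhibition versus DMSO and control, 4-parameter fit.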

Sequence of α4β1 integrin (P13612 34-1032): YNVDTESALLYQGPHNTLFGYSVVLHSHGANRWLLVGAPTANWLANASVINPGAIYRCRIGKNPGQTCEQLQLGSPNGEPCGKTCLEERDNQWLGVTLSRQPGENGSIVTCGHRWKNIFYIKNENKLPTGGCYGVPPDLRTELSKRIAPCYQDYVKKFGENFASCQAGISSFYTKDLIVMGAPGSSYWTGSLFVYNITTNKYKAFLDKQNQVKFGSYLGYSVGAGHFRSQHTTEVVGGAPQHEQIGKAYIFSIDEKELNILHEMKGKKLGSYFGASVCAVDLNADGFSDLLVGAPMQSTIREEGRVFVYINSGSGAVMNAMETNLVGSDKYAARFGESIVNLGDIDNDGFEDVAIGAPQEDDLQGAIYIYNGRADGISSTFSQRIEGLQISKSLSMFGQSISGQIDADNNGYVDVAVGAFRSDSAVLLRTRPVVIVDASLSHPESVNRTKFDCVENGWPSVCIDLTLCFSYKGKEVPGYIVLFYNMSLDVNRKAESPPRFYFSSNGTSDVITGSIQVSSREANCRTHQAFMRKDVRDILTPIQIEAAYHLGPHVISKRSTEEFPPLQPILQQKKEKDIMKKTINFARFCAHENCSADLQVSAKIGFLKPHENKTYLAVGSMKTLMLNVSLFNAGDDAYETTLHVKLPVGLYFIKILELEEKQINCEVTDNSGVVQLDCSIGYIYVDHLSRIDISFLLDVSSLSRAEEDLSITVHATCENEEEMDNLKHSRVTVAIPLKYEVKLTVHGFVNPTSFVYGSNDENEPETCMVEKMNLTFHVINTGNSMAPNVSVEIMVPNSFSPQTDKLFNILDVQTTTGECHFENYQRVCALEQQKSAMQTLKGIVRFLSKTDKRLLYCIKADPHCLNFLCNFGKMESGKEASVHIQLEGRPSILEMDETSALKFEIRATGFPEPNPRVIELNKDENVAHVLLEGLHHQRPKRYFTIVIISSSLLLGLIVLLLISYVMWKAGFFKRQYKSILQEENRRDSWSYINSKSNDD
Sequence of α4β1 integrin (P05556 21-798): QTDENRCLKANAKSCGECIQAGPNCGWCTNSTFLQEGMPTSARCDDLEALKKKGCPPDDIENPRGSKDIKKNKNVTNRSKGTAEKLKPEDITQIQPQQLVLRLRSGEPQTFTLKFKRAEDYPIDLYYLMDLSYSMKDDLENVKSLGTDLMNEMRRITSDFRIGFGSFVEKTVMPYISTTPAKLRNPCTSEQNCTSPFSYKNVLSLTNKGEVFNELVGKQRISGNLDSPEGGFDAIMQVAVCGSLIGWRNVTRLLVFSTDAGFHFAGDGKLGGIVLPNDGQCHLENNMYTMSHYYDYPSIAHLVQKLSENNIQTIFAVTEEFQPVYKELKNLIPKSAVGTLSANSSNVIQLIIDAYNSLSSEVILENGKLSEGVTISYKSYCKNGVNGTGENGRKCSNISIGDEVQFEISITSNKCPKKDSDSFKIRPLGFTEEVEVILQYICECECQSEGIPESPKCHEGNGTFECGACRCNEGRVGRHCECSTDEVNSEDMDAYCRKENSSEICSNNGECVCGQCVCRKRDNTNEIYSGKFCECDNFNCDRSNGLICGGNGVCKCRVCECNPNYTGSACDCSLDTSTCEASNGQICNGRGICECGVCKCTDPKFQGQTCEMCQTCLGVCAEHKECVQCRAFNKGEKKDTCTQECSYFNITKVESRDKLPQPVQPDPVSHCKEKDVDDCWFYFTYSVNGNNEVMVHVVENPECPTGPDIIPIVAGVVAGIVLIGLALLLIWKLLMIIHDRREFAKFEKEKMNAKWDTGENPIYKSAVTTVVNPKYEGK
Sequence of α4β7 integrin (P13612 34-1032): as the sequence (P13612 34-1032) above
Sequence of α4β7 integrin (P26010 20-798): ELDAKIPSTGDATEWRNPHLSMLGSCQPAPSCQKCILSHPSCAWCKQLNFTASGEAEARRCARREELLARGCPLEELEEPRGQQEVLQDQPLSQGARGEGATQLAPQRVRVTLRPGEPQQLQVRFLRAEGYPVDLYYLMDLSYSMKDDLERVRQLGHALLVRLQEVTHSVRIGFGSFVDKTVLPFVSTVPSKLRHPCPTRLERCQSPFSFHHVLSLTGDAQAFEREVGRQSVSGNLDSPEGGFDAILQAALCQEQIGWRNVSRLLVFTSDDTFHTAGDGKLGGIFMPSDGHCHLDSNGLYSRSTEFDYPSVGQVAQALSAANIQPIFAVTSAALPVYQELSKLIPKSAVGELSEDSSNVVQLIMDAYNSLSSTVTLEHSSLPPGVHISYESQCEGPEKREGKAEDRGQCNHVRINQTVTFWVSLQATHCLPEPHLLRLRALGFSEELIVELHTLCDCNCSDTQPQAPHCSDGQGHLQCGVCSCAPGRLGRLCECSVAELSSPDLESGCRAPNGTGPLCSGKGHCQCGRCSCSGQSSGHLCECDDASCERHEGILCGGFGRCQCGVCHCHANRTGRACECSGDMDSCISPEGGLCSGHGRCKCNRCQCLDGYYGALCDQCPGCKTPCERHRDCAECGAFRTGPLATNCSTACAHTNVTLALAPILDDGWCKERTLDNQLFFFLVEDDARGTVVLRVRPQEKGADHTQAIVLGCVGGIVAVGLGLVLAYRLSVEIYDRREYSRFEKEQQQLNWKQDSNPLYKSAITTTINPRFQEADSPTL

IC50 [1] [nM]	IC50 [2] [nM]	Compound
< 10	> 1000	COc1cc(CN2CCC(F)(F)C2)cc(OC)c1-c1cccc2c(C[C@H](NC(=O)C3(C(F)(F)F)CCN(CC(F)(F)F)CC3)C(=O)O)cccc12 [Compound 797]
< 10	> 1000	COc1ccc(CN2CCCCC2)nc1-c1cccc2c(C[C@H](NC(=O)C3(C(F)(F)F)CCN(CC(F)(F)F)CC3)C(=O)O)cccc12 [Compound 798]
< 10	> 1000	COc1c(CN2CCCCC2)ccc(Cl)c1-c1cccc2c(C[C@H](NC(=O)C3(C(F)(F)F)CCN(CC(F)(F)F)CC3)C(=O)O)cccc12 [Compound 799]
< 10	> 1000	COc1cc(CN2CCCCC2)cnc1-c1cccc2c(C[C@H](NC(=O)C3(C(F)(F)F)CCN(CC(F)(F)F)CC3)C(=O)O)cccc12 [Compound 800]
< 10	> 1000	O=C(O)[C@H](Cc1cccc2c(-c3c(CN4CCCCC4)ccc4ccncc34)cccc12)NC(=O)C1(C(F)(F)F)CCN(CC(F)(F)F)CC1 [Compound 802]
10 to 100	> 1000	O=C(O)[C@H](Cc1cccc2c(-c3cccc4c(CN5CCCCC5)cncc34)cccc12)NC(=O)C1(C(F)(F)F)CCN(CC(F)(F)F)CC1 [Compound 803]
< 10	100 to 1000	COc1cc(CN2CCCCC2)cc(Cl)c1-c1cccc2c(C[C@H](NC(=O)C3(C(F)(F)F)CCN(CC(F)(F)F)CC3)C(=O)O)cccc12 [Compound 804]
< 10	100 to 1000	COc1ccc(CN2CCN(CC(C)C)CC2)c(OC)c1-c1cccc2c(C[C@H](NC(=O)C3(C(F)(F)F)CCN(CC(F)(F)F)CC3)C(=O)O)cccc12 [Compound 805]
10 to 100	> 1000	COc1ccc(CN2CCN(Cc3ccc(C(F)(F)F)cc3)CC2)c(OC)c1-c1cccc2c(C[C@H](NC(=O)C3(C(F)(F)F)CCN(CC(F)(F)F)CC3)C(=O)O)cccc12 [Compound 806]
< 10	> 1000	COc1ccc(CN2CCC(c3ccccc3)CC2)c(OC)c1-c1cccc2c(C[C@H](NC(=O)C3(C(F)(F)F)CCN(CC(F)(F)F)CC3)C(=O)O)cccc12 [Compound 807]
< 10	100 to 1000	COc1ccc(CN2CCC(c3ccncc3)CC2)c(OC)c1-c1cccc2c(C[C@H](NC(=O)C3(C(F)(F)F)CCN(CC(F)(F)F)CC3)C(=O)O)cccc12 [Compound 808]
< 10	100 to 1000	COc1ccc(CN2CCCC3(CCN(Cc4ccccc4)CC3)C2)c(OC)c1-c1cccc2c(C[C@H](NC(=O)C3(C(F)(F)F)CCN(CC(F)(F)F)CC3)C(=O)O)cccc12 [Compound 809]
< 10	100 to 1000	COc1ccc(CN2CCN(C)C(C)(C)C2)c(OC)c1-c1cccc2c(C[C@H](NC(=O)C3(C(F)(F)F)CCN(CC(F)(F)F)CC3)C(=O)O)cccc12 [Compound 810]
< 10	> 1000	COc1ccc(CN2CC3CCCCC3C2)c(OC)c1-c1cccc2c(C[C@H](NC(=O)C3(C(F)(F)F)CCN(CC(F)(F)F)CC3)C(=O)O)cccc12 (stereo partly drawn) [Compound 811]
10 to 100	> 1000	COc1ccc(CN2CCCC(C)(C)CC2)c(OC)c1-c1cccc2c(C[C@H](NC(=O)C3(C(F)(F)F)CCN(CC(F)(F)F)CC3)C(=O)O)cccc12 [Compound 812]
< 10	> 1000	COc1ccc(CN2CCC3(CCCCC3)CC2)c(OC)c1-c1cccc2c(C[C@H](NC(=O)C3(C(F)(F)F)CCN(CC(F)(F)F)CC3)C(=O)O)cccc12 [Compound 813]
10 to 100	> 1000	COc1ccc(CN2CC(C(F)(F)F)C2)c(OC)c1-c1cccc2c(C[C@H](NC(=O)C3(C(F)(F)F)CCN(CC(F)(F)F)CC3)C(=O)O)cccc12 [Compound 814]
10 to 100	> 1000	COc1ccc(CN2CC(c3ccccc3)C2)c(OC)c1-c1cccc2c(C[C@H](NC(=O)C3(C(F)(F)F)CCN(CC(F)(F)F)CC3)C(=O)O)cccc12 [Compound 815]
< 10	100 to 1000	COc1ccc(CN2CCN(C3CCC3)CC2)c(OC)c1-c1cccc2c(C[C@H](NC(=O)C3(C(F)(F)F)CCN(CC(F)(F)F)CC3)C(=O)O)cccc12 [Compound 816]
< 10	100 to 1000	COc1ccc(CN2CC3C(C2)C3(C)C)c(OC)c1-c1cccc2c(C[C@H](NC(=O)C3(C(F)(F)F)CCN(CC(F)(F)F)CC3)C(=O)O)cccc12 (stereo partly drawn) [Compound 817]
< 10	> 1000	COc1ccc(CN2CCC(C(C)(C)C)CC2)c(OC)c1-c1cccc2c(C[C@H](NC(=O)C3(C(F)(F)F)CCN(CC(F)(F)F)CC3)C(=O)O)cccc12 [Compound 818]

IC50 [1] [nM]	IC50 [2] [nM]	Compound
< 10	100 to 1000	COc1ccc(CN2CCC(C)(C)CC2)c(C(F)(F)F)c1-c1cccc2c(C[C@H](NC(=O)C3(C(F)(F)F)CCN(CC(F)(F)F)CC3)C(=O)O)cccc12 [Compound 819]
10 to 100	> 1000	COc1ccc(CN2CCCC(F)C2)c(C(F)(F)F)c1-c1cccc2c(C[C@H](NC(=O)C3(C(F)(F)F)CCN(CC(F)(F)F)CC3)C(=O)O)cccc12 (stereo partly drawn) [Compound 820]
10 to 100	> 1000	COc1ccc(CN2CCC(F)CC2)c(C(F)(F)F)c1-c1cccc2c(C[C@H](NC(=O)C3(C(F)(F)F)CCN(CC(F)(F)F)CC3)C(=O)O)cccc12 [Compound 821]
100 to 1000	> 1000	COc1ccc(CN2CCC(F)(F)CC2)c(C(F)(F)F)c1-c1cccc2c(C[C@H](NC(=O)C3(C(F)(F)F)CCN(CC(F)(F)F)CC3)C(=O)O)cccc12 [Compound 822]
100 to 1000	> 1000	COc1ccc(CN2CCC(F)(F)CC2)c(C(F)(F)F)c1-c1cccc2c(C[C@H](NC(=O)c3c(C)cccc3F)C(=O)O)cccc12 [Compound 823]
< 10	> 1000	COc1cc(CN2CCCCC2)cc(C(F)(F)F)c1-c1cccc2c(C[C@H](NC(=O)C3(C(F)(F)F)CCN(CC(F)(F)F)CC3)C(=O)O)cccc12 [Compound 824]
10 to 100	> 1000	COc1ccc(CN2CCCC(F)(F)C2)c(OC)c1-c1cccc2c(C[C@H](NC(=O)C3(C(F)(F)F)CCN(CC(F)(F)F)CC3)C(=O)O)cccc12 [Compound 825]
10 to 100	> 1000	COc1cccc(CN2CCC(F)CC2)c1-c1cccc2c(C[C@H](NC(=O)C3(C(F)(F)F)CCN(CC(F)(F)F)CC3)C(=O)O)cccc12 [Compound 827]
10 to 100	> 1000	COc1cccc(CN2CCCC(F)C2)c1-c1cccc2c(C[C@H](NC(=O)C3(C(F)(F)F)CCN(CC(F)(F)F)CC3)C(=O)O)cccc12 (stereo partly drawn) [Compound 828]
10 to 100	> 1000	COc1cccc(CN2CCC(C)(C)CC2)c1-c1cccc2c(C[C@H](NC(=O)C3(C(F)(F)F)CCN(CC(F)(F)F)CC3)C(=O)O)cccc12 [Compound 829]
10 to 100	> 1000	COc1cc(C(F)(F)F)cc(CN2CCCCC2)c1-c1cccc2c(C[C@H](NC(=O)C3(C(F)(F)F)CCN(CC(F)(F)F)CC3)C(=O)O)cccc12 [Compound 830]
< 10	> 1000	COc1cc(CN2CCCCC2)ccc1-c1cccc2c(C[C@H](NC(=O)C3(C(F)(F)F)CCN(CC(F)(F)F)CC3)C(=O)O)cccc12 [Compound 831]
10 to 100	> 1000	COc1cc(C(F)(F)F)c(CN2CCCCC2)cc1-c1cccc2c(C[C@H](NC(=O)C3(C(F)(F)F)CCN(CC(F)(F)F)CC3)C(=O)O)cccc12 [Compound 832]
< 10	100 to 1000	Cn1c(=O)c(-c2cccc3c(C[C@H](NC(=O)C4(C(F)(F)F)CCN(CC(F)(F)F)CC4)C(=O)O)cccc23)c(C(F)(F)F)c2cc(CN3CCC(F)CC3)ccc21 [Compound 833]
< 10	10 to 100	Cn1c(=O)c(-c2cccc3c(C[C@H](NC(=O)C4(C(F)(F)F)CCN(CC(F)F)CC4)C(=O)O)cccc23)c(C(F)(F)F)c2cc(CN3CCC(F)CC3)ccc21 [Compound 834]
10 to 100	100 to 1000	Cn1c(=O)c(-c2cccc3c(C[C@H](NC(=O)C4(C(F)(F)F)CCN(CC(F)(F)F)CC4)C(=O)O)cccc23)c(C(F)(F)F)c2cc(CN3CCC(F)(F)CC3)ccc21 [Compound 835]
10 to 100	10 to 100	Cn1c(=O)c(-c2cccc3c(C[C@H](NC(=O)C4(C(F)(F)F)CCN(CC(F)F)CC4)C(=O)O)cccc23)c(C(F)(F)F)c2cc(CN3CCC(F)(F)CC3)ccc21 [Compound 836]
10 to 100	100 to 1000	Cn1c(=O)c(-c2cccc3c(C[C@H](NC(=O)C4(C(F)(F)F)CCN(CC(F)(F)F)CC4)C(=O)O)cccc23)c(C(F)(F)F)c2cc(CN3CCC(c4ccccc4)CC3)ccc21 [Compound 837]
< 10	10 to 100	Cn1c(=O)c(-c2cccc3c(C[C@H](NC(=O)C4(C(F)(F)F)CCN(CC(F)F)CC4)C(=O)O)cccc23)c(C(F)(F)F)c2cc(CN3CCC(c4ccccc4)CC3)ccc21 [Compound 838]
10 to 100	100 to 1000	CC1CCN(Cc2ccc3c(c2)c(C(F)(F)F)c(-c2cccc4c(C[C@H](NC(=O)C5(C(F)(F)F)CCN(CC(F)(F)F)CC5)C(=O)O)cccc24)c(=O)n3C)CCC1(F)F (stereo partly drawn) [Compound 839]
< 10	10 to 100	CC1CCN(Cc2ccc3c(c2)c(C(F)(F)F)c(-c2cccc4c(C[C@H](NC(=O)C5(C(F)(F)F)CCN(CC(F)F)CC5)C(=O)O)cccc24)c(=O)n3C)CCC1(F)F (stereo partly drawn) [Compound 840]
